# Measurements published in patent US12419874B2, “GLP-1R agonist compound and use thereof” (Chongqing Pharmaceutical Research Institute Co., Ltd., priority 2024, dated 2025).
# Assays:
# GLP-1R [1] = molecular target: T1, GLP-1R (Homo sapiens, UniProt P43220); assay: GLP-1R agonistic activity by cAMP detection kit in HEK293-GLP-1R-luc cells (Example 58); assay type: cell-based; details: 30 min incubation
# Protocol: The agonistic activities of the compounds of the present disclosure on GLP-1R were evaluated by detecting the generation of cAMP.
# • (1) Cell line: HEK293-GLP-1R-luc Stable Cell Line (Cobioer, CBP71117); • (2) Culture medium: DMEM+10% FBS (Gibco); • (3) Kit: cAMP detection kit (PerkinElmer). 2. Experimental Procedures • (1) HEK293-GLP1R cells were inoculated in a 384-well plate at a density of 2000 cells per well; • (2) 4× working solution of each compound was formulated; • (3) 5 μL of 4× working solution of each compound was added to corresponding well and incubated at 37° C. for 30 min; • (4) 10 μL of Eu-cAMP tracer diluted with Lysis Buffer (1/50) was added to each well; • (5) 10 μL of Ulight-anti-cAMP diluted with Lysis Buffer (1/150) was added to each well; • (6) The plate was incubated at room temperature for 1 h; • (7) The plate was read by a multimode microplate reader (excitation wavelength: 320 nm; emission wavelength: 665 nm and 620 nm). 3. Data Analysis • (1) % Activity was calculated by the following formula: % Activity=100−(Signalcmpd−SignalAve-PC)/(SignalAve-VC−SignalAve-PC)×100 • (2) The dose-response curve was plotted to calculate EC50: Y=Bottom+(Top−Bottom)/(1+10^(Log EC50−X)*HillSlope)) • X: log of agonist concentration; Y: Activity. 4. Experimental Results
# GLP-1R [2] = molecular target: T1, GLP-1R; assay: GLP-1R agonistic activity by One-Lite luciferase assay in HEK293-GLP-1R-luc cells (Example 59); assay type: cell-based; details: 6 h incubation, read-out: cAMP EC50
# In short: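 HEK293 cells stably expressing GLP-1R with a cAMP-responsive luciferase reporter, 30000 cells/well, exposed to compound for 6 h at 37 °C. Chemiluminescence read after 3 min with One-Lite substrate at room temperature; % activity normalised to positive and vehicle controls, EC50 from a four-parameter dose-response fit.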
# [3] = In vivo pharmacokinetics in Macaca fascicularis, intravenous
# Protocol: A clear solution of “example compound 67 in WO2018056453” in 10% PEG/90% 100 mM glycine-NaOH and a clear solution of “Compound 1” in 10% PEG/90% 100 mM glycine-NaOH were prepared. The above solutions were injected into subcutaneous veins of the fore limbs of male Macaca fascicularis (n=2) at a dose of 0.12 mg/kg, respectively. At different time points (0.083, 0.25, 0.5, 1.0, 2.0, 4.0, 8.0, 24.0, and 36 h) after administration, blood samples were collected from veins into anticoagulant tubes containing EDTA-K2, and centrifuged to separate plasma.
# The drug concentrations in the plasma were determined by the LC-MS/MS method, and the pharmacokinetic software (e.g., winNonlin Version 6.3) was used to calculate the related pharmacokinetic parameters as shown in Table 10 by using the log-linear trapezoidal rule of the non-compartmental analysis.
# [4] = In vivo pharmacokinetics in rats, oral; design: species or system SD rats; details: for AUC(0-t) / Cmax / half-life: rat, plasma, SD rats, PO
# Protocol: The compounds of the present disclosure were formulated with […]+90% 100 mM glycine-64 mM NaOH, and orally administered to fasted SD rats at a dose of 1 mg/kg or 5 mg/kg, respectively. At different time points (0.25, 0.5, 1.0, 2.0, 4.0, 5.0, 6.0, 7.0, 8.0, and 24 h) after administration, about 50 μL of blood samples were collected from veins into anticoagulant tubes containing EDTA-K2, and centrifuged to separate plasma. The plasma concentrations of the compounds were determined by LC-MS/MS. WinNonlin was used to calculate the pharmacokinetic parameters by using the non-compartmental analysis, and the experimental results were listed in Table 9.
# [5] = test system: GLP-1R humanized C57BL/6N mice fed with high-fat diets; assay: In vivo efficacy on body weight and food intake in high-fat diet hGLP-1R mice; details: for Cumulative Food Intake on Day 27 / Change Rate of Body Weight on Day 27: gavage once daily; for Change Rate of Body Weight on Day 27: corrected by Vehicle
# Protocol: The effects of long-term administration of the compounds of the present disclosure on the weight and food intake of GLP-1R humanized C57BL/6N mice fed with high-fat diets were evaluated.
# • five-week-old male C57BL/6N hGLP-1R mice; • 60% high-fat diet (HFD); electronic balance. 3. Experimental Method • (1) C57BL/6N_hGLP-1R mice were fed with 60% high-fat diets until the end of the experiment. • (2) At the 10th week of HFD feeding, the model mice were randomly divided into groups according to their body weight, with 6 to 7 mice in each group. Subsequently, the single-caged mice were adaptively fed for 2 weeks. The first group was Vehicle group (Vehicle: 10% PEG 400+10% propylene glycol+80% glycine-NaOH buffer), and administered with the Vehicle; the remaining groups were drug treatment groups; the duration of administration was 27 days. • (3) The day of drug administration was defined as Day 0. At each administration, the animals were weighed and the data were recorded, and the mice were treated depending upon their body weight. • (4) The food intake of the mice in each group was measured once a day from Day 0 of the experiment. Specifically, the diets were changed after each weighing and administration, and the addition amounts and residual amounts thereof were recorded. 4. Experimental Data Processing and Statistical Analysis
# The rates of change in the body weight of mice after administration were summarized and statistically analyzed.
# The rate of change in the body weight corrected by Vehicle was calculated: (((BWt/BW0)−1)−(BWt-vec-avg))*100%;
# BWt represented the body weight of mouse in drug treatment group on Day t; BW0 represented the body weight of mouse in drug treatment group on Day 0; BWt-vec-avg represented the average body weight of mice in Vehicle group on Day t for drug treatment groups.
# The cumulative food intake of mice after drug administration was summarized and statistically analyzed.
# Cumulative food intake was calculated: addition amounts (g)—residual amounts (g).
# The cumulative food intake was the sum of daily food intake of each animal during the period of administration.
# [6] = Macaca fascicularis, versus example compound 67 in WO2018056453, in words
# [7] = cynomolgus monkey, plasma, male Macaca fascicularis, 0.12 mg/kg
# [8] = rats, oral, versus example compound 67 in WO2018056453, in words
# T1 sequence (P43220 24-463): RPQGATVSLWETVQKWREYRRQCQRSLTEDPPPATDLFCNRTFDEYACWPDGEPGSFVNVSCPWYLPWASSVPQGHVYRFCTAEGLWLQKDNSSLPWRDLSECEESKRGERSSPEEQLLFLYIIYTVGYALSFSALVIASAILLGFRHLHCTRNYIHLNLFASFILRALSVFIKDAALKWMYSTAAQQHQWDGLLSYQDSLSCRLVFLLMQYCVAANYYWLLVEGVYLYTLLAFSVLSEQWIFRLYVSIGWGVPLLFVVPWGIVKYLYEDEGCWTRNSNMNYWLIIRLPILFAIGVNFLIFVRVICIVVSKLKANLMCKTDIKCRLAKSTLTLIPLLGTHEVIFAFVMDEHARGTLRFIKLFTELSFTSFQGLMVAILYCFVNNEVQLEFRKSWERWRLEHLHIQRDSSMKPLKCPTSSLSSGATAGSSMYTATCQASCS
structure (smiles),measurement,setting,value
Cc1cc(-n2nc3c(c2-n2ccn(-c4ccc5c(cnn5C)c4F)c2=O)[C@H](C)N(C(=O)c2cc4cc([C@H]5CCOC(C)(C)C5)ccc4n2[C@@]2(c4noc(=O)[nH]4)C[C@@H]2C)CC32CC2)cc(C)c1F [Compound 1],EC50,GLP-1R [1],≤ 0.1 nM
same,EC50,GLP-1R [2],≤ 20 nM
same,clearance (Cl) compared with the control compound,[3]; [6],lower
same,exposure (AUC) compared with the control compound,[3]; [6],higher
same,half-life (T1/2) compared with the control compound,[3]; [6],longer
same,AUC(0-t),[3]; [7],754 ng·h/mL
same,clearance,[3]; [7],2.63 mL/min/kg
same,half-life,[3]; [7],6.08 h
same,AUC(0-t),[4]; 1 mg/kg,2300 ng·h/mL
same,Cmax,[4]; 1 mg/kg,213 ng/mL
same,half-life,[4]; 1 mg/kg,10 h
same,AUC(0-t),[4]; 5 mg/kg,11800 ng·h/mL
same,Cmax,[4]; 5 mg/kg,1080 ng/mL
same,half-life,[4]; 5 mg/kg,12.9 h
same,maximum plasma concentration Cmax compared with the control compound,[4]; [8],higher
same,oral exposure AUC compared with the control compound,[4]; [8],higher
same,Cumulative Food Intake on Day 27,[5]; 0.3 mpk,73.91 ± 6.71 g
same,Change Rate of Body Weight on Day 27,[5]; 0.3 mpk,−15.04 ± 1.90%
same,Cumulative Food Intake on Day 27,[5]; 1.5 mpk,70.01 ± 5.88 g
same,Change Rate of Body Weight on Day 27,[5]; 1.5 mpk,−18.46 ± 1.98%
same,Cumulative Food Intake on Day 27,[5]; 3.0 mpk,62.75 ± 6.97 g
same,Change Rate of Body Weight on Day 27,[5]; 3.0 mpk,−23.78 ± 1.61%
same,reduction of the body weight and inhibition of the food intake,"[5]; long-term administration, 0.3 to 3 mpk, in words",excellent effects
